From patent US8809545B2, “Aryl pyridine as aldosterone synthase inhibitors” (Novartis AG, priority 2009, dated 2014)

What was measured:
[1] = target: T1, CYP11B1 (steroid 11 β-hydroxylase) (Homo sapiens, UniProt P15538); test: Cortisol cell secretion in NCI-H295R cells (in vitro inhibitory activity for CYP11B1); assay type: cell-based; details: NCI-H295R, compound at 1 μM
T1 construct: the NCI-H295R cells have CYP11B1 (steroid 11 β-hydroxylase); host or cells: NCI-H295R
T1 sequence (P15538 25-503): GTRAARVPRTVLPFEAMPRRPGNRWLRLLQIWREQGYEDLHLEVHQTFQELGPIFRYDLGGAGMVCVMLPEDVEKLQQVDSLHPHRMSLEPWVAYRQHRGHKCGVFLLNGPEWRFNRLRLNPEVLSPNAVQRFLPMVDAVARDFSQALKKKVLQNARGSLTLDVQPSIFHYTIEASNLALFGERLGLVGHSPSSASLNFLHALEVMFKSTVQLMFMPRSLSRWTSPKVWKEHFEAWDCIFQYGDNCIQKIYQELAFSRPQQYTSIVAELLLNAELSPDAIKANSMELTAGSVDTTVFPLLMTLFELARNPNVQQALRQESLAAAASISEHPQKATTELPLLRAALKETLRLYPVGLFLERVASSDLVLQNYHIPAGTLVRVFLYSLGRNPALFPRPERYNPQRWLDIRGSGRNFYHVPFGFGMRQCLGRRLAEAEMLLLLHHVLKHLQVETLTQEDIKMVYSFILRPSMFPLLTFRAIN
Source text: The in vitro inhibitory activities for CYP11B1 can be determined by the following assay.
The cell line NCI-H295R was originally isolated from an adrenocortical carcinoma and has been characterized in the literature through the stimulable secretion of steroid hormones and the presence of the enzymes essential for steroidogenesis. Thus, the NCI-H295R cells have CYP11B1 (steroid 11 β-hydroxylase). The cells show the physiological property of zonally undifferentiated human fetal adrenocortical cells which, however, have the capacity to produce the steroid hormones which are formed in the three, phenotypically distinguishable zones in the adult adrenal cortex.
The NCI-H295R cells (American Type Culture Collection, ATCC, Rockville, Md., USA) are grown in Dulbeoco's Modified Eagle'Ham F-12 Medium (DME/F12), which has been supplemented with Ulroser SF Serum (Soprachem, Cergy-Saint-Christophe, France), insulin, transferrin, selenite (I-T-S, Becton Dickinson Biosiences, Franklin lakes, N.J., USA) and antibiotics in 75 cm^2 cell culture vessels at 37° C. and in a 95% air-5% carbon dioxide atmosphere. The cells are subsequently transferred for colony formation into a 24-well incubation vessel. They are cultivated there in DME/F12 medium, which is now supplemented with 0.1% bovine serum instead of Ultroser SF for 24 hours. The experiment is initiated by cultivating the cells in DME/F12 medium which is supplemented with 0.1% bovine serum albumin and test compound, in the presence or absence of cell stimulants, for 72 hours. The test substance is added in a concentration range from 0.2 nanomolar to […]. Cell stimulants which can be used are angiotensin II ([…] or 100 nanomolar), potassium ions (16 millimolar), forskolin (10 micromolar) or a combination of two stimulants.
The excretion of aldosterone, cortisol, corticosterone and estradiol/estrone into the culture medium can be detected and quantified by commercially available, specific monoclonal antibodies in radioimmunoassays in accordance with the manufacturer's instructions.
(§1) Inhibition of the release of certain steroids can be used as a measure of the respective enzyme inhibition by the added test compounds. The dose-dependent inhibition of enzymatic activity by a compound is calculated by means of an inhibition plot which is characterized by an IC50.
The inhibition activity of CYP11B1 production can also be expressed in percentage inhibition (% inhibition) at a given concentration (e.g. % inhibition at 1 μM), which is the cortisol level when cell is treated with the given concentration of a compound of the invention (e.g. concentration of 1 μM) versus the cortisol excretion when cell is free of the compound of the invention. % inhibition cortisol production=[(Y′−X′)/Y′]×100 wherein X′ is the level of cortisol when the cell is treated with a compound of Formula I; and Y′ is the level of cortisol when the cell is free of compound of Formula I.

aldosterone synthase = target: T2, aldosterone synthase (Homo sapiens, UniProt P19099); test: Aldosterone cell secretion in Ang II-stimulated NCI-H295R cells (SPA with anti-aldosterone antibody); assay type: cell-based; details: human adrenocortical carcinoma NCI-H295R cells, 1 μM Ang II, 24 h
T2 construct: host or cells: NCI-H295R
T2 sequence (P19099 25-503): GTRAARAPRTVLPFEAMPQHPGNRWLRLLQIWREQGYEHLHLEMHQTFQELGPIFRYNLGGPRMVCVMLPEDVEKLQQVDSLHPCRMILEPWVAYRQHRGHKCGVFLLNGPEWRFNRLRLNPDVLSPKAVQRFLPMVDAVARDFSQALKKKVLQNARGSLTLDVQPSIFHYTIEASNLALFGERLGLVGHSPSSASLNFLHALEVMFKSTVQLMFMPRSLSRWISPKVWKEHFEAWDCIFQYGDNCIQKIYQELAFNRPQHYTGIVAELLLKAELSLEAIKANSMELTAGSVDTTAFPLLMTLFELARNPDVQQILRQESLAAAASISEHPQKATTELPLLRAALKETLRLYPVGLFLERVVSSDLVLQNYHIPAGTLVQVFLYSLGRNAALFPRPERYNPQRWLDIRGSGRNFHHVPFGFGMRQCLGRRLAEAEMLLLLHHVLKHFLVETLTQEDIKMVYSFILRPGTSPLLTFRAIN
Source text: In particular, the aldosterone synthase inhibitory activities in vitro can be determined by the following assay.
Human adrenocortical carcinoma NCI-H295R cell line was obtained from American Type Culture Collection (Manassas, Va.). Insulin/transferrin/selenium (ITS)-A supplement (100×), DMEM/F-12, antibiotic/antimycotic (100×), and fetal bovine serum (FBS) were purchased from Invitrogen (Carlsbad, Calif.). Anti-mouse PVT scintillation proximity assay (SPA) beads and NBS 96-well plates were obtained from GE Health Sciences (Piscataway, N.J.) and Corning (Acton, Mass.), respectively. Solid black 96-well flat bottom plates were purchased from Costar (Corning, N.Y.). Aldosterone and angiotensin (Ang II) were purchased from Sigma (St. Louis, Mo.). D-[1,2,6,7-^3H(N)]aldosterone was acquired from PerkinElmer (Boston, Mass.). Nu-serum was a product of BD Biosciences (Franklin Lakes, N.J.).
On the following day, cells are rinsed with 100 μL of phosphate-buffered saline (PBS) and incubated with 100 μL of treatment medium containing 1 μM Ang II and a compound at different concentrations in quadruplicate wells at 37° C. for 24 h. At the end of incubation, 50 μL of medium is withdrawn from each well for measurement of aldosterone production by an SPA using mouse anti-aldosterone monoclonal antibodies.
Measurement of aldosterone activity can also be performed using a 96-well plate format. […] Anti-mouse PVT SPA beads (50 μL) are then added to each well and incubated overnight at room temperature prior to counting in a Microbeta plate counter. The amount of aldosterone in each sample is calculated by comparing with a standard curve generated using known quantities of the hormone.
as §1
The inhibition plot is calculated by fitting a 4-parameter logistic function to the raw data points using the least squares method. The equation of the 4-parameter logistic function is calculated as follows: Y=(d−a)/((1+(x/c)b))+a, where: a=minimum data level, b=gradient, I […], d=maximum data level, x=inhibitor concentration.

| SMILES | inhibition at 1 µM [1] [%] | IC50 (aldosterone synthase) [nM] |
| --- | --- | --- |
| CCS(=O)(=O)NC(c1cncc(-c2ccc(C#N)cc2F)c1)C1CC1 (centres unmarked) [N-(5-(4-cyano-2-fluorophenyl)pyridin-3-yl)(cyclopropyl)methyl)ethanesulfonamide] | 39 | 167 |
| COc1cc(-c2cncc(NS(=O)(=O)C3CC3)c2)ccc1C#N [N-(5-(4-cyano-3-methoxyphenyl)pyridin-3-yl)cyclopropane-sulfonamide] | 32 | 77 |
| CCS(=O)(=O)Nc1cncc(-c2ccc(C#N)c(OC)c2)c1 [N-(5-(4-cyano-3-methoxyphenyl)pyridin-3-yl)ethanesulfonamide] | 38 | 33 |
| CCS(=O)(=O)NC(c1ccc(F)cc1)c1cncc(-c2ccc(C#N)c(C)c2)c1 (centres unmarked) [N-(5-(4-cyano-3-methylphenyl)pyridin-3-yl)(4-fluorophenyl)methyl)ethane-sulfonamide] | 23 | 121 |
| CCS(=O)(=O)NCc1cncc(-c2nc3ccc(Cl)cc3n2C)c1 [N-(5-(6-chloro-1-methyl-1H-benzo[d]imidazol-2-yl)pyridin-3-yl)methyl)ethanesulfonamide] | 24 | 97 |
| CCS(=O)(=O)N(C)C(c1cncc(-c2ccc(C#N)c(Cl)c2)c1)C1CC1 (centres unmarked) [N-((5-(3-chloro-4-cyanophenyl)pyridin-3-yl)(cyclopropyl)methyl)-N-methylethanesulfonamide] | 63 | 5 |
| CCS(=O)(=O)NC(c1cncc(-c2ccc(F)c(Cl)c2)c1)C1CC1 (centres unmarked) [N-((5-(3-chloro-4-fluorophenyl)pyridin-3-yl)(cyclopropyl)methyl)-ethanesulfonamide] | 21 | 22 |
| CCS(=O)(=O)NC(c1cncc(-c2ccc(Cl)cc2)c1)C1CC1 (centres unmarked) [N-((5-(4-chlorophenyl)pyridin-3-yl)(cyclopropyl)methyl)-ethanesulfonamide] | 31 | 42 |
| COc1cc(-c2cncc(CNS(C)(=O)=O)c2)ccc1C#N [N-((5-(4-cyano-3-methoxyphenyl)pyridin-3-yl)methyl)methane-sulfonamide] | 40 | 85 |
| CCS(=O)(=O)NC(c1cncc(-c2cccc(Cl)c2Cl)c1)C1CC1 (centres unmarked) [N-(cyclopropyl(5-(2,3-dichlorophenyl)pyridin-3-yl)methyl)ethanesulfonamide] | 39 | 5 |
| CCS(=O)(=O)NC(c1cncc(-c2ccc(OC(F)(F)F)cc2)c1)C1CC1 (centres unmarked) [N-(cyclopropyl(5-(4-(trifluoromethoxy)phenyl)pyridin-3-yl)methyl)ethanesulfonamide] | 20 | 110 |
| CCc1ccc(S(=O)(=O)Nc2cncc(-c3ccc(C#N)c(Cl)c3)c2)cc1 [N-[5-(3-Chloro-4-cyano-phenyl)-pyridin-3-yl]-4-ethyl-benzene-sulfonamide] | 78 | 6 |
| COc1ccc(S(=O)(=O)Nc2cncc(-c3ccc(C#N)c(Cl)c3)c2)cc1 [N-[5-(3-Chloro-4-cyano-phenyl)-pyridin-3-yl]-4-methoxy-benzene-sulfonamide] | 74.5 | 9 |
